# Key:
# PC12 cells = experiment: Morphological assessment of glutamate toxicity; assay type: cell-based; details: 10 mM glutamate, 750 μM NAC amide, 24 hours
# Procedure: Cell culture and toxicity studies: Stock culture of PC12 cells, purchased from ATCC, were grown in 75 cm^2 tissue culture flasks in RPMI 1640, supplemented with 10% (v/v) heat-inactivated horse serum, and 5% (v/v) fetal bovine serum, to which 1% (v/v) penicillin and streptomycin were added. Cultures were maintained at 37° C. in a humidified atmosphere containing 5% CO2. The cells were passaged twice a week. Unless specified, all of the experiments were performed using Dulbecco's modified Eagle's medium (DMEM) as differentiation medium, supplemented with 0.5% (v/v) fetal bovine serum, 1% (v/v) penicillin and streptomycin. PC12 cells were plated at a density of 25×10^3 cells/well in a 24-well, collagen-coated plate for morphological assessment. The plate was divided into five groups in triplicate: 1) control: no glutamate, no NAC amide; 2) Nerve Growth Factor (NGF) control: NGF (100 ng/ml), no glutamate, no NAC amide; 3) NAC amide only: NGF (100 ng/ml), no glutamate, NAC amide (750 μM); 4) glutamate only: NGF (100 ng/ml), glutamate (10 mM), no NAC amide; and 5) Glu+NAC amide: NGF (100 ng/ml), glutamate (10 mM), NAC amide (750 μM). […]
# Glutamate toxicity was evaluated by 1) morphological assessment of PC12 cells in the presence of glutamate; 2) measuring the amount of LDH released in the media 24 h after glutamate exposure; and 3) measuring cell viability using the MTS assay. […]
# red blood cells (RBCs) = details: Grinberg et al. 2005; cited from earlier work
# [1] = Wong et al. 1986; cited from earlier work
Molecule,"protection from glutamate toxicity (neurite morphology, light microscopy) (PC12 cells)",BuOOH-induced intracellular oxidation in red blood cells (red blood cells (RBCs)),time increased hepatic GSH levels are maintained [1]
N-acetylcysteine amide [NAC amide],slightly decreasing the bleb formation on neurites,inhibit,
"CC(=O)N[C@@H](CS)C(=O)O [NAC, N-acetylcysteine]",,,at least 6 hours

# From patent US10869846B2, “N-acetylcysteine amide (NAC amide) in the treatment of diseases and conditions associated with oxidative stress” (SENTIENT LIFESCIENCES, INC., priority 2005, dated 2020)
